Measured values reported in publication PMC11079024, “Identification of a family of species-selective complex I inhibitors as potential anthelmintics” (Nature Communications, 2024).
Like-named read-outs stand apart in the source and are kept apart here.

Assays:
in vitro = conditions: human
[1] = biological target: C. elegans (N2) complex I (NADH:ubiquinone oxidoreductase) (Caenorhabditis elegans, UniProt P24887+Q93873+Q94360); test: biochemical; type: biochemical; conditions: for activity at 0.0001 µM / activity at 0.0005 µM / activity at 0.001 µM / activity at 0.0025 µM / activity at 0.005 µM / activity at 0.013 µM / activity at 0.025 µM / activity at 0.063 µM / activity at 0.125 µM / activity at 0.313 µM / activity at 0.625 µM / activity at 1.5 µM / activity at 3 µM / activity at 15 µM / activity at 37.5 µM / activity at 75 µM: read-out: C. elegans mitochondrial complex I activity; for Log IC50 C. elegans complex I: log10 of IC50 in µM, C. elegans mitochondria
How it was run: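 Compounds were tested against freeze-thawed isolated mitochondria (0.2 mg/mL protein). NADH:decylubiquinone activity was monitored via DCIP absorbance at 600 nm, and the initial linear slope was normalised to solvent controls.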

[2] = 50 μM, hit = relative motility below 0.25 3 hours after removal of KCN
[3] = Dose 0.2 µM, mean of at least three biological replicates
[4] = HEK293 cells (Flp-In-293), HEK293 viability
[5] = in vitro complex I dose response on C. elegans mitochondria, average of at least two biological replicates, fit in R (DRC), read-out: IC50 C. elegans complex I
[6] = wild-type C. elegans mitochondria, read-out: C. elegans Complex I IC50
[7] = HEK293 Cell Viability Assay LC50, HEK293 cells, estimated from fitted dose-response curves
[8] = HEK293 Cell Viability Assay LC50, HEK293 cells, estimated from fitted dose-response curves, mean of at least two biological replicates
[9] = wild-type C. elegans mitochondria, estimated from fitted dose-response curves, read-out: C. elegans Complex I IC50
[10] = 50 μM compound, hit = relative motility below 0.25 3 hours after removal of KCN
[11] = wild-type (N2) mitochondria, read-out: C. elegans Complex I IC50

Chain of C. elegans (N2) complex I (NADH:ubiquinone oxidoreductase) (Q94360 17-199): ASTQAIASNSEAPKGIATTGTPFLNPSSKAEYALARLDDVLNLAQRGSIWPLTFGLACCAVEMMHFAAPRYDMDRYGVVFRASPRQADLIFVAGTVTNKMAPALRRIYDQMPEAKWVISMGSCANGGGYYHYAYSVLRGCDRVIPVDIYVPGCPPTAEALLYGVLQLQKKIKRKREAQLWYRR
Chain of C. elegans (N2) complex I (NADH:ubiquinone oxidoreductase) (P24887 whole entry): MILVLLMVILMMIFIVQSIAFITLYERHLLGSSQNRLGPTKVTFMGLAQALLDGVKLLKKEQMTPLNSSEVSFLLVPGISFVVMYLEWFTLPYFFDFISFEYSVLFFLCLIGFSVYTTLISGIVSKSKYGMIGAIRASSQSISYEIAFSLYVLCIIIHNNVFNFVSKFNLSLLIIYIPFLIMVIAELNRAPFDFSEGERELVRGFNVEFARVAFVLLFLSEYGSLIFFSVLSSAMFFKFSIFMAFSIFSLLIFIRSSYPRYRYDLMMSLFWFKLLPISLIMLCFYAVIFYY
Chain of C. elegans (N2) complex I (NADH:ubiquinone oxidoreductase) (Q93873 31-482): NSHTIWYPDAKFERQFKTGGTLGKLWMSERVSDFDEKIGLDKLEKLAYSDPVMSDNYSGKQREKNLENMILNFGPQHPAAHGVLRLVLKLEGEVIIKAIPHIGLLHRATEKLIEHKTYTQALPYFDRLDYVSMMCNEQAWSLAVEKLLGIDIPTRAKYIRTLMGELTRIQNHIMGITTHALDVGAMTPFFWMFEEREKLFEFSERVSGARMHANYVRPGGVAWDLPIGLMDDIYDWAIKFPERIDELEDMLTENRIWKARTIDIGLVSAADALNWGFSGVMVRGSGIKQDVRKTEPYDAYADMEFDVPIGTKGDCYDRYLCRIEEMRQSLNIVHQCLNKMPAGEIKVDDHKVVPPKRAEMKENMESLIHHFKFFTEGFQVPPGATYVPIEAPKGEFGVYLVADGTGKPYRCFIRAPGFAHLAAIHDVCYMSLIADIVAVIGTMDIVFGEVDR

CC(C)Oc1cccc(OCCn2cnc3ccccc32)c1 [Compound 7926496]
Screen "Hit" (L1 wild-type C. elegans; [2]): Y (hits were identified as compounds that reduced relative motility below 0.25 (75% reduction))
C. elegans KCN Survival (L1 wild-type C. elegans; [3]): 1.017
C. elegans KCN Survival (L1 wild-type C. elegans; Dose 0.39 µM): 1.017
C. elegans KCN Survival (L1 wild-type C. elegans; Dose 1.56 µM): 1.072
C. elegans KCN Survival (L1 wild-type C. elegans; Dose 3.13 µM): 1.070
C. elegans KCN Survival (L1 wild-type C. elegans; Dose 6.25 µM): 1.047
C. elegans KCN Survival (L1 wild-type C. elegans; Dose 12.5 µM): 0.937
C. elegans KCN Survival (L1 wild-type C. elegans; Dose 25 µM): 0.437
C. elegans KCN Survival (L1 wild-type C. elegans; Dose 50 µM): 0.153
C. elegans KCN Survival (L1 wild-type C. elegans; Dose 100 µM): 0.199
CC50 at 2 days (in vitro): 94.5 µM
viability at 2 days, 6.25 µM (in vitro; [4]): 97.4%
viability at 2 days, 12.5 µM (in vitro; [4]): 96.9%
viability at 2 days, 25 µM (in vitro; [4]): 97.3%
viability at 2 days, 50 µM (in vitro; [4]): 85.9%
viability at 2 days, 100 µM (in vitro; [4]): 43.4%
viability (in vitro; HEK293 viability, Dose 3.13 µM): 91.5%
activity at 0.0001 µM [1]: 80%
activity at 0.0005 µM [1]: 92.9%
activity at 0.001 µM [1]: 87.5%
activity at 0.0025 µM [1]: 88.5%
activity at 0.005 µM [1]: 89.3%
activity at 0.013 µM [1]: 88.3%
activity at 0.025 µM [1]: 81.7%
activity at 0.063 µM [1]: 79.5%
activity at 0.125 µM [1]: 81.6%
activity at 0.313 µM [1]: 76.9%
activity at 0.625 µM [1]: 83.9%
activity at 1.5 µM [1]: 76.4%
activity at 3 µM [1]: 65%
activity at 15 µM [1]: 17.8%
activity at 37.5 µM [1]: 0.13%
activity at 75 µM [1]: 0%
IC50 [1, 5]: 6.2 µM
Log IC50 C. elegans complex I [1]: 0.79 µM
IC50 [1, 6]: 6.2 µM

Clc1ccc(OCCn2cnc3ccccc32)c(Cl)c1 [Compound 7221649]
Screen "Hit" (L1 wild-type C. elegans; [2]): Y (hits were identified as compounds that reduced relative motility below 0.25 (75% reduction))
C. elegans KCN Survival (L1 wild-type C. elegans; [3]): 0.959
C. elegans KCN Survival (L1 wild-type C. elegans; Dose 0.39 µM): 0.956
C. elegans KCN Survival (L1 wild-type C. elegans; Dose 1.56 µM): 1.007
C. elegans KCN Survival (L1 wild-type C. elegans; Dose 3.13 µM): 1.008
C. elegans KCN Survival (L1 wild-type C. elegans; Dose 6.25 µM): 0.946
C. elegans KCN Survival (L1 wild-type C. elegans; Dose 12.5 µM): 0.599
C. elegans KCN Survival (L1 wild-type C. elegans; Dose 25 µM): 0.152
C. elegans KCN Survival (L1 wild-type C. elegans; Dose 50 µM): 0.156
C. elegans KCN Survival (L1 wild-type C. elegans; Dose 100 µM): 0.254
CC50 at 2 days (in vitro; [7]): 55.3 µM
viability at 2 days, 3.13 µM (in vitro; HEK293 cells (Flp-In-293), HEK293 viability, Dose 3.13 µM): 100%
viability at 2 days, 6.25 µM (in vitro; [4]): 100%
viability at 2 days, 12.5 µM (in vitro; [4]): 100%
viability at 2 days, 25 µM (in vitro; [4]): 100%
viability at 2 days, 50 µM (in vitro; [4]): 61.2%
viability at 2 days, 100 µM (in vitro; [4]): 7.3%
activity at 0.0001 µM [1]: 92.4%
activity at 0.0005 µM [1]: 97.1%
activity at 0.001 µM [1]: 98.6%
activity at 0.0025 µM [1]: 106%
activity at 0.005 µM [1]: 107%
activity at 0.013 µM [1]: 101%
activity at 0.025 µM [1]: 101%
activity at 0.063 µM [1]: 94.8%
activity at 0.125 µM [1]: 93.4%
activity at 0.313 µM [1]: 89.3%
activity at 0.625 µM [1]: 84.8%
activity at 1.5 µM [1]: 71.9%
activity at 3 µM [1]: 58.5%
activity at 15 µM [1]: 22.2%
activity at 37.5 µM [1]: 11.4%
activity at 75 µM [1]: 6.54%
IC50 [1, 5]: 4.19 µM
Log IC50 C. elegans complex I [1]: 0.62 µM
IC50 [1, 6]: 4.19 µM

C=CCn1c(-c2ccc(N(C)C)cc2)nc2ccccc21 [Compound 6873298]
Screen "Hit" (L1 wild-type C. elegans; 50 μM, KCN survival assay, hit = relative motility below 0.25): Y (hits were identified as compounds that reduced relative motility below 0.25 (75% reduction))
CC50 at 2 days (in vitro; [8]): 65.3 µM
IC50 [1, 5]: 13.2 µM
Log IC50 C. elegans complex I [1]: 1.12 µM
IC50 [1, 9]: 13.2 µM

CC(C)Cc1ccc(C(C)c2nc3ccccc3n2C(C)C)cc1 (centres unmarked) [STK951903]
Screen "Hit" (L1 wild-type C. elegans; [10]): Y (hits were identified as compounds that reduced relative motility below 0.25 (75% reduction))
CC50 at 2 days (in vitro; [7]): 29.2 µM
IC50 [1, 5]: 4.2 µM
Log IC50 C. elegans complex I [1]: 0.62 µM
IC50 [1, 11]: 4.2 µM
IC50 [1, 6]: 4.2 µM

Cc1nc2ccccc2n1Cc1ccc(C(C)C)cc1 [Compound 7353551]
Screen "Hit" (L1 wild-type C. elegans; [10]): Y (hits were identified as compounds that reduced relative motility below 0.25 (75% reduction))
CC50 at 2 days (in vitro; [8]): 46.2 µM
IC50 [1, 5]: 0.43 µM
Log IC50 C. elegans complex I [1]: -0.37 µM
IC50 [1, 11]: 0.43 µM
IC50 [1, 9]: 0.43 µM
